Data set [1] in a line: Measurement of log P values by HPLC on reversed phase columns (EEC directive 79/831 Annex V.A8). Particulars: for chromatographic logP: pH 2.7.
The test system of another data set is Plasmopara viticola. The data set can be described thus: Plasmopara test (grapevines)/preventive. The data set is classed as in vivo. Particulars: preventive spray, 10 ppm of active ingredient, evaluated 6 days after inoculation. Summed up:
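Young grapevines sprayed preventively with compound formulated in acetone/dimethylacetamide with emulsifier, diluted in water, then inoculated with P. viticola spores after drying. Held 1 day at ~20 °C/100% RH, 4 days in greenhouse at ~21 °C/~90% RH, then misted for 1 day. Efficacy scored 6 days post-inoculation (0% = untreated control, 100% = no disease).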

Data set [2] has as its system Phytophthora infestans. Type of data set: in vivo. Conditions: tomato, preventive spray, 100 ppm of active ingredient, evaluated 7 days after inoculation.
Data set [3] concerns Phytophthora infestans. The data set is classed as in vivo. Particulars: tomato plants, spray, 500 ppm, grading 5 days after contamination.
The conditions of data set [4]: pH 2.7.
The subject of the next data set is Uromyces appendiculatus. The data set can be described thus: In vivo test on Uromyces appendiculatus (brown rust of bean). Conditions: Saxa variety plants, spray, 500 ppm, grading 10 days after contamination. As for the experimental part:
(§1) The active ingredients tested are prepared by homogenization in a mixture of acetone/tween/DMSO, then diluted with water to obtain the desired active material.
[…] (Saxa variety) sown on 50/50 peat soil-pozzolana substrate in starter cups and grown at 24° C., are treated at the 2-leaf stage (9 cm tall) by spraying with the aqueous suspension described above.
Plants, used as controls, are treated with an aqueous solution not containing the active material.
(§2) After 24 hours, the plants are contaminated by spraying the leaves with an aqueous suspension of Uromyces appendiculatus spores (150.000 spores per ml). The spores are collected from a 10-day-old contaminated […] and are suspended in water containing 2.5 ml/l of tween 80 10%. The contaminated […] are incubated for 24 hours at 20° C. and at 100% relative humidity, and then for 10 days at 20° C. and at 70% relative humidity. Grading is carried out 10 days after the contamination, in comparison with the control plants.
(§3) Under these conditions, good (at least 70%) or total protection is observed at a dose of 500 ppm with the following compounds: […]

A further data set deals with Puccinia recondita. The data set can be described thus: In vivo test on Puccinia recondita (brown rust). Particulars: wheat plants, spray, 500 ppm, grading 10 days after contamination. How it is done: as §1
Wheat plants (Scipion variety) sown on 50/50 peat soil-pozzolana substrate in starter cups and grown at 22° C. (12 h)/20° C. (12 h), are treated at the 1-leaf stage (10 cm tall) by spraying with the aqueous suspension described above.
as §2, with “Plants, used as controls, are treated with an aqueous solution not containing the active material. After” for “After”, “Puccinia recondite” for “Uromyces appendiculatus”, “(100.000” for “(150.000”
as §3

Broadly, the chromatographic logP is a lipophilicity value derived from retention on a column. A higher chromatographic logP goes with a more lipophilic compound. The term LogP denotes a log measure of how a compound divides between an organic and an aqueous phase.

Where two headings read alike, the source gives them in different places. Marks after values point to notes of the source that are not given here.

`CCCCOC(=O)Nc1cccc(CO/N=C(/c2ccccc2)c2noc(=O)n2C)n1` [Example 18, butyl {6-[({[(Z)-(4-methyl-5-oxo-4,5-dihydro-1,2,4-oxadiazol-3-yl)(phenyl)methylene]amino}oxy)methyl]pyridin-2-yl}carbamate]: the chromatographic logP in data set [1] amounted to 4.04. The results for the Eff. % with Plasmopara viticola and in the data set with Phytophthora infestans [2] were 100% and 95%, respectively.

As to `CC(Oc1ccccc1)C(=O)Nc1nc(CO/N=C(/c2ccccc2)c2noc(=O)n2C)cs1` (centres unmarked) [Example 19], in data set [1] (method [a], HPLC on reversed phase columns), the lipophilicity (LogP) was 3.71 [a]. The figures for the Eff. % in the data set on Plasmopara viticola and with Phytophthora infestans [2] were 97% and 95%, respectively.

In data set [1], `Cn1c(/C(=N\OCc2cccc(NC(=O)OC(C)(C)C)n2)c2ccccc2)noc1=O` [Example 21, tert-butyl {6-[({[(Z)-(4-methyl-5-oxo-4,5-dihydro-1,2,4-oxadiazol-3-yl)(phenyl)methylene]amino}oxy)methyl]pyridin-2-yl}carbamate] displayed a chromatographic logP of 3.96. Further, the results for the Eff. % in the data set on Plasmopara viticola and with Phytophthora infestans [2] were 100% and 97%, respectively.

For the molecule `Cn1c(/C(=N\OCc2cccc(NC(=O)CCC3CC3)n2)c2ccccc2)noc1=O` [Example 62], the values for the Eff. % with Phytophthora infestans [3] and with Uromyces appendiculatus were 99% and 71%, respectively. Moreover, in data set [4], the LogP was 3.51 [a].

Regarding `C=CCCCCCC(=O)Nc1cccc(CO/N=C(/c2ccccc2)c2noc(=O)n2C)n1` [Example 99], the Eff. % was 99% in the data set with Phytophthora infestans [3] and 71% with Uromyces appendiculatus. Moreover, the LogP in data set [4] was 4.3 [a].

`CC(Oc1ccccc1Br)C(=O)Nc1nc(CO/N=C(/c2ccccc2)c2noc(=O)n2C)cs1` (centres unmarked) [Example 113]: the Eff. % with Phytophthora infestans [3] is 90%; with Uromyces appendiculatus, 79%. For the same molecule, the LogP in data set [4] is 4.2 [a].

Take `COc1ccc(/C(=N/OCc2cccc(NC(=O)OC(C)CC(C)C)n2)c2noc(=O)n2C)cc1` (centres unmarked) [Example 185]: the Eff. % came out at 83% with Phytophthora infestans [3], 75% in the data set on Uromyces appendiculatus and 78% with Puccinia recondita. In addition, the LogP in data set [4] is 4.72 [a].

Regarding `Cn1c(/C(=N\OCc2cccc(NC(=O)OC(C)(C)C)n2)c2cccc(F)c2)noc1=O` [Example 206], the Eff. % with Phytophthora infestans [3] is given as 100%; in the data set with Uromyces appendiculatus it was 91%; in the data set on Plasmopara viticola, 81%. Besides, the log partition coefficient (LogP) in data set [4] was 4.09 [a].

On to `CC(Oc1ccc(Br)cc1)C(=O)Nc1nc(CO/N=C(/c2ccccc2)c2noc(=O)n2C)cs1` (centres unmarked) [Example 216], for which the results for the Eff. % in the data set on Phytophthora infestans [3] and in the data set on Uromyces appendiculatus were 95% and 71%, respectively. Also, the LogP in data set [4] is 4.17 [a].

As for `CCCC(C)(C)OC(=O)Nc1cccc(CO/N=C(/c2ccccc2)c2noc(=O)n2C)n1` [Example 233, 2-methylpentan-2-yl {6-[({[(Z)-(4-methyl-5-oxo-4,5-dihydro-1,2,4-oxadiazol-3-yl)(phenyl)methylene]amino}oxy)methyl]pyridin-2-yl}carbamate], the Eff. % was 99% with Phytophthora infestans [3], 78% in the data set on Plasmopara viticola and 98% with Puccinia recondita. This molecule also yielded a chromatographic logP in data set [1] of 4.77.

Take `Cn1c(C(=NOCc2cccc(NC(=O)OCCc3ccccc3)n2)c2ccc(F)cc2)noc1=O` [Example 258]: the Eff. % amounted to 89% with Phytophthora infestans [3], 93% with Uromyces appendiculatus and 81% with Puccinia recondita. In data set [4], the lipophilicity (LogP) is 4.24 [a].

On to `CC(Oc1ccc(Cl)cc1)C(=O)Nc1nc(CO/N=C(/c2ccccc2)c2noc(=O)n2C)cs1` (centres unmarked) [Example 276], for which the figures for the Eff. % in the data set with Phytophthora infestans [3] and with Uromyces appendiculatus were 98% and 89%, respectively. Moreover, the log partition coefficient (LogP) in data set [4] was 4.07 [a].

Regarding `CCCCOC(=O)Nc1cccc(CO/N=C(/c2cccc(F)c2)c2noc(=O)n2C)n1` [Example 295], the Eff. % with Phytophthora infestans [3] is on record as 97%; with Uromyces appendiculatus, 70%; with Plasmopara viticola it was 89%. Also, the lipophilicity (LogP) in data set [4] was 4.14 [a].

With `CCOCCOC(=O)Nc1cccc(CO/N=C(/c2ccccc2)c2noc(=O)n2C)n1` [Example 400], the Eff. % turned out to be 100% in the data set with Phytophthora infestans [3] and 94% with Uromyces appendiculatus. Also, the LogP in data set [4] was 3.17 [a].

These data come from patent US9090600B2, “Fungicidal 4-substituted-3-{phenyl[(heterocyclylmethoxy)imino]methyl}-1,2,4-oxadizol-5(4H)-one derivatives” (BAYER INTELLECTUAL PROPERTY GMBH, priority 2011, dated 2015).
